Data on eight molecules can be found in patent US7745636B2, “Hepatitis C virus inhibitors” (Bristol-Myers Squibb Company, priority 2006, dated 2010).

The subject of the assay is HCV 1b-377-neo replicon cells. The assay can be described thus: HCV Replicon assay, HCV 1b-377-neo replicon cells. Type of assay: cell-based, HCV 1b genotype. The following applies: Table 2, read-out: Range (EC50 against HCV 1b). The protocol: An HCV Replicon assay was utilized in the present disclosure, and was prepared, conducted and validated as described in commonly owned PCT/US2006/022197 and in O'Boyle et. al. Antimicrob Agents Chemother. 2005 April; 49(4):1346-53.
HCV 1b-377-neo replicon cells were used to test the currently described compound series as well as cells resistant to compound A due to a Y2065H mutation in NS5A (described in application PCT/US2006/022197). The compounds tested were determined to have more than 10-fold less inhibitory activity on cells resistant to compound A than wild-type cells indicating a related mechanism of action between the two compound series. Thus, the compounds of the present disclosure can be effective to inhibit the function of the HCV NS5A protein and are understood to be as effective in combinations as previously described in application PCT/US2006/022197 and commonly owned WO/O4014852. Further, the compounds of the present disclosure can be effective against the HCV 1b genotype. It should also be understood that the compounds of the present disclosure can inhibit multiple genotypes of HCV. […] In one embodiment compounds of the present disclosure are active against the 1a, 1b, 2a, 2b, 3a, 4a, and 5a genotypes.
On the technique in general: A replicon is a self-replicating genome or part of one, used to study replication in cells.

Read-outs that look alike come from different tables or passages of the source.

On to `COC(=O)N[C@@H](C(=O)N(C)[C@@H](C)c1ncc(-c2ccc(-c3ccc(-c4cnc([C@@H]5CCCN5C(=O)[C@@H](c5ccccc5)N5CCCCC5)[nH]4)cc3)cc2)[nH]1)c1ccccc1` [Example 131.1-2, methyl((1R)-2-(methyl((1S)-1-(5-(4′-(2-((2S)-1-((2R)-2-phenyl-2-(1-piperidinyl)acetyl)-2-pyrrolidinyl)-1H-imidazol-5-yl)-4-biphenylyl)-1H-imidazol-2-yl)ethyl)amino)-2-oxo-1-phenylethyl)carbamate], for which, where the note is “Hepatitis C virus”, the EC50 (commonly the concentration at which the effect is half-maximal) fell in the range of 0.001 to 0.999 nM. On the same count and under the same terms, the figure for `C[C@H](NC(=O)[C@@H](c1ccccc1)N(C)C)c1ncc(-c2ccc(-c3ccc(-c4cnc([C@H](C)NC(=O)[C@@H](c5ccccc5)N(C)C)[nH]4)cn3)cc2)[nH]1` [Example 152j-24, (2R)-2-(dimethylamino)-N-((1S)-1-(5-(6-(4-(2-((1S)-1-(((2R)-2-(dimethylamino)-2-phenylace-tyl)amino)eth-yl)-1H-imidazol-5-yl)phenyl)-3-pyridinyl)-1H-imidazol-2-yl)ethyl)-2-phenylacetamide] is 0.001 to 0.999 nM. The same measure, in the same setting: then `CO[C@@H](C(=O)N1CCC[C@H]1c1ncc(-c2ccc(-c3ccc(-c4cnc([C@@H]5CCCN5C(=O)[C@H](OC)c5ccccc5)[nH]4)cn3)cc2)[nH]1)c1ccccc1` [Example 135, 5-(2-((2S)-1-((2R)-2-methoxy-2-phenylacetyl)-2-pyrrolidinyl)-1H-imidazol-5-yl)-2-(4-(2-((2S)-1-((2R)-2-methoxy-2-phenylacetyl)-2-pyrrolidinyl)-1H-imidazol-5-yl)phenyl)pyridine], with 0.001 to 0.999 nM; and `COC(=O)N[C@H](C(=O)N1CCC[C@H]1c1nc(-c2cnc(-c3ccc(-c4cnc([C@@H]5CCCN5C(=O)[C@@H](NC(=O)OC)C5CC5)[nH]4)cc3)nc2)c[nH]1)C1CC1` [Example D75, methyl ((1S)-1-cyclopropyl-2-((2S)-2-(5-(2-(4-(2-((2S)-1-((2S)-2-cyclopropyl-2-((methoxycarbonyl)amino)acetyl)-2-pyrrolidinyl)-1H-imidazol-5-yl)phenyl)-5-pyrimidinyl)-1H-imidazol-2-yl)-1-pyrrolidinyl)-2-oxoethyl)carbamate], with 0.001 to 0.999 nM. Same read-out and setting: then `COC(=O)N[C@H](C(=O)N1[C@H](c2ncc(-c3ccc(-c4ccc(-c5cnc([C@@H]6C[C@@H]7C[C@@H]7N6C(=O)[C@@H](NC(=O)OC)C(C)C)[nH]5)cc4)cc3)[nH]2)C[C@@H]2C[C@@H]21)C(C)C` [Example M122, methyl((1S)-1-(((1S,3S,5S)-3-(5-(4′-(2-((1S,3S,5S)-2-((2S)-2-((methoxycarbonyl)amino)-3-methylbutanoyl)-2-azabicyclo[3.1.0]hex-3-yl)-1H-imidazol-5-yl)-4-biphenylyl)-1H-imidazol-2-yl)-2-azabicyclo[3.1.0]hex-2-yl)carbonyl)-2-methylpropyl)carbamate], with 1 to 99 nM; and `COC(=O)N[C@@H](C(=O)N[C@@H](C)c1ncc(-c2cnc(-c3ccc(-c4cnc([C@@H]5CCCN5C(=O)[C@H](NC(=O)OC)c5ccccc5)[nH]4)cc3)nc2)[nH]1)c1ccccc1` [Example 152j-17, methyl ((1R)-2-((2S)-2-(5-(4-(5-(2-((1S)-1-(((2R)-2-((methoxycarbonyl)amino)-2-phenylace-tyl)amino)eth-yl)-1H-imidazol-5-yl)-2-pyrimidinyl)phenyl)-1H-imidazol-2-yl)-1-pyrrolidinyl)-2-oxo-1-phenylethyl)carbamate], with 0.001 to 0.999 nM. As for `COC(=O)N[C@H](C(=O)N1CCC[C@H]1c1ncc(-c2ccc(-c3ccc(-c4cnc([C@@H]5CCCN5C(=O)CNCc5ccccc5)[nH]4)cc3)cc2)[nH]1)C(C)C` [LS22], the EC50 was in the range of 0.001 to 0.999 nM. As to `COC(=O)N[C@@H](C(=O)N1CCC[C@H]1c1ncc(-c2ccc(-c3ccc(-c4cnc([C@@H]5CCCN5C(=O)Cc5cccnc5)[nH]4)cn3)cc2)[nH]1)c1ccccc1` [Example 143, methyl ((1R)-2-oxo-1-phenyl-2-((2S)-2-(5-(4-(5-(2-((2S)-1-(3-pyridinylacetyl)-2-pyrrolidinyl)-1H-imidazol-5-yl)-2-pyridinyl)phenyl)-1H-imidazol-2-yl)-1-pyrrolidinyl)ethyl)carbamate], the EC50 (Hepatitis C virus) fell in the range of 0.001 to 0.999 nM.
